Measurements: patent US10544106B2, “Certain chemical entities, compositions, and methods” (NeuPharma, Inc., priority 2016, dated 2020)

Target: BTK (Homo sapiens (Human), UniProt Q06187)
Test: Z'-LYTE kinase inhibition assay against BTK
Assay type: biochemical
Settings: compound at 100 nM; ATP concentration at Km
Method: Inhibitory activities of compounds against BTK, EGFR T790M, EGFR L858R, and EGFR L858R/T790M were measured using Z′-LYTE® Method from Life Technologies as briefly described in the following.
Test Compounds are screened in 1% DMSO (final) in the well. For 10 point titrations, 3-fold serial dilutions are conducted from the starting concentration. All ATP Solutions are diluted to a 4× working concentration in Kinase Buffer (50 mM HEPES pH 7.5, 0.01% BRIJ-35, 10 mM MgCl2, 1 mM EGTA). Peptide/Kinase Mixtures are diluted to a 2× working concentration in the appropriate Kinase Buffers as described below. • (i) Peptide/Kinase Mixtures for measurement of EGFR (ErbB1) L858R: • The 2×EGFR (ErbB1) L858R/Tyr 04 mixture is prepared in 50 mM HEPES pH 7.5, 0.01% BRIJ-35, 10 mM MgCl2, 4 mM MnCl2. 1 mM EGTA, 2 mM DTT. The final 10 μL Kinase Reaction consists of 0.2-1.68 ng EGFR (ErbB1) L858R and 2 μM Tyr 04 in 50 mM HEPES pH 7.5, 0.01% BRIJ-35, 10 mM MgCl2, 2 mM MnCl2, 1 mM EGTA, 1 mM DTT. After the 1 hour Kinase Reaction incubation, 5 μL of a 1:64 dilution of Development Reagent B is added. • (ii) Peptide/Kinase Mixtures for measurement of EGFR (ErbB1) T790M: The 2×EGFR (ErbB1) T790M/Tyr 04 mixture is prepared in 50 mM HEPES pH 6.5, 0.01% BRIJ-35, 10 mM MgCl2, 1 mM EGTA, 0.02% NaN3. The final 10 μL Kinase Reaction consists of 3.9-30.2 ng EGFR (ErbB1) T790M and 2 μM Tyr 04 in 50 mM HEPES pH 7.0, 0.01% BRIJ-35, 10 mM MgCl2, 1 mM EGTA, 0.01% NaN3. After the 1 hour Kinase Reaction incubation, 5 μL of a 1:64 dilution of Development Reagent B is added. • (iii) Peptide/Kinase Mixtures for measurement of EGFR (ErbB1) L858R/T790M: The 2×EGFR (ErbB1) T790M L858R/Tyr 04 mixture is prepared in 50 mM HEPES pH 6.5, 0.01% BRIJ-35, 10 mM MgCl2, 1 mM EGTA, 0.02% NaN3. The final 10 μL Kinase Reaction consists of 0.38-4.22 ng EGFR (ErbB1) T790M L858R and 2 μM Tyr 04 in 50 mM HEPES pH 7.0, 0.01% BRIJ-35, 10 mM MgCl2, 1 mM EGTA, 0.01% NaN3. After the 1 hour Kinase Reaction incubation, 5 μL of a 1:64 dilution of Development Reagent B is added. • (iv) Peptide/Kinase Mixtures for measurement of BTK: The 2×BTK/Tyr 01 mixture is prepared in 50 mM HEPES pH 7.5, 0.010/BRIJ-35, 10 mM MgCl2, 1 mM EGTA. The final 10 μL Kinase Reaction consists of 1.04-10.4 ng BTK and 2 μM Tyr 01 in 50 mM HEPES pH 7.5, 0.01% BRIJ-35, 10 mM MgCl2, 1 mM EGTA. After the 1 hour Kinase Reaction incubation, 5 μL of a 1:256 dilution of Development Reagent B is added.
Reaction starts by 30-second shaking of mixture consisting of 2.5 μL 4× test compound, 5 μL 2× kinase reaction mixture and 2.5 μL 4×ATP Solution on Bar-coded Corning, low volume NBS, black 384-well plate (Corning Cat. #3676). Then the mixture is incubated for 60-minute at room temperature for the kinase reaction, followed by addition of 5 μL of a 1:1024 dilution of development reagent A and 30-second plate shake. The mixture is then incubated for another 60-minute at room temperature for development reaction. Finally fluorescence is read by plate reader.
The Z′-LYTE assay was carried out with ATP concentration at Km. The scale utilized in Tables 2-6 is as follows: ++ more than 50% inhibition and + less than 50% inhibition.
To determine IC50 of a compound against a kinase, a series of concentrations of the compound were tested for the inhibition. IC50 was calculated by plotting the concentration of compound vs the percentage of inhibition in treated wells using GraphPad Prism 5. […] The scale utilized in Table 7 is as follows: ++ less than 100 nM and + greater than 100 nM.

Sequence of BTK (Q06187 whole entry): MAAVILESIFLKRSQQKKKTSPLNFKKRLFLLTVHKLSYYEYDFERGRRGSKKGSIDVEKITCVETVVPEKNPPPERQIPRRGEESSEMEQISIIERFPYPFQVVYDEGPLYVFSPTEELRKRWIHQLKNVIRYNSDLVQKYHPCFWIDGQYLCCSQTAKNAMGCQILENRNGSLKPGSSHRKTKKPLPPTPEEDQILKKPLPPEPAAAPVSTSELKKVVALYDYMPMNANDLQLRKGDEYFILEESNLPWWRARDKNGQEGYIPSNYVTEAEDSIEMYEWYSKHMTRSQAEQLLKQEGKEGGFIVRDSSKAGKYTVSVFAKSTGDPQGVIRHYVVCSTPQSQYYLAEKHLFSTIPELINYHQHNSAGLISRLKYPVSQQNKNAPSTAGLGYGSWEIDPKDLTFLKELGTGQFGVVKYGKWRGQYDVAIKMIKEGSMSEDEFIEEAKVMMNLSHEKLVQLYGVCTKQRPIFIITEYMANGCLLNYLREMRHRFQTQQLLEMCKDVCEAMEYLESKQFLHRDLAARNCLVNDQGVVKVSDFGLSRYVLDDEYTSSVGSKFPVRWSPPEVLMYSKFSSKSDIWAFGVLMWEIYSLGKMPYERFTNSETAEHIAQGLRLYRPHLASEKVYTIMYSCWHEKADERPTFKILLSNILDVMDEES

inhibition at 0.1 µM [%] | SMILES
> 50 | C=CC(=O)N1CCC(c2cc(-c3ccc(Oc4ccccc4)cc3)n3cnccc23)C1 (centres unmarked) [C063, 1-(3-(7-(4-phenoxyphenyl)pyrrolo[1,2-c]pyrimidin-5-yl)pyrrolidin-1-yl)prop-2-en-1-one]
< 50 | C=CC(=O)N1CCC(c2cc(-c3cncc(C(F)(F)F)c3)cc3cncnc23)C1 (centres unmarked) [C066, 1-(3-(6-(5-(trifluoromethyl)pyridin-3-yl)quinazolin-8-yl)pyrrolidin-1-yl)prop-2-en-1-one]
> 50 | C=CC(=O)N1CCC(c2cc(-c3ccc(C(=O)Nc4ccccn4)cc3Cl)cc3cncnc23)C1 (centres unmarked) [C067, 4-(8-(1-acryloylpyrrolidin-3-yl)quinazolin-6-yl)-3-chloro-N-(pyridin-2-yl)benzamide]
< 50 | C=CC(=O)N1CCC(c2cc(-c3ccc(C(=O)Nc4cccc(C(F)(F)F)c4)cc3)cc3cncnc23)C1 (centres unmarked) [C068, 4-(8-(1-acryloylpyrrolidin-3-yl)quinazolin-6-yl)-N-(3-(trifluoromethyl)phenyl)benzamide]
> 50 | C=CC(=O)Nc1cccc(-c2cc(-c3ccc(C(=O)Nc4ccccn4)nc3)cc3cncnc23)c1 [C069, 5-(8-(3-acrylamidophenyl)quinazolin-6-yl)-N-(pyridin-2-yl)picolinamide]
< 50 | C=CC(=O)Nc1cccc(-c2cc(-c3ccc(C(=O)Nc4cccc(C)c4)nc3)cc3cncnc23)c1 [C070, 5-(8-(3-acrylamidophenyl)quinazolin-6-yl)-N-(m-tolyl)picolinamide]
> 50 | C=CC(=O)Nc1cccc(-c2cc(-c3ccc(C(=O)Nc4cccc(C(F)(F)F)c4)nc3)cc3cncnc23)c1 [C071, 5-(8-(3-acrylamidophenyl)quinazolin-6-yl)-N-(3-(trifluoromethyl)phenyl)picolinamide]
< 50 | C=CC(=O)Nc1cccc(-c2cc(-c3ccc(Oc4ccc(Cl)cc4)nc3)cc3cncnc23)c1 [C072, N-(3-(6-(6-(4-chlorophenoxy)pyridin-3-yl)quinazolin-8-yl)phenyl)acrylamide]
> 50 | C=CC(=O)Nc1cccc(-c2cc(-c3ccccc3C#N)cc3cncnc23)c1 [C075, N-(3-(6-(2-cyanophenyl)quinazolin-8-yl)phenyl)acrylamide]
< 50 | C=CC(=O)N1CCC(c2cc(-c3ccc(Oc4ccccc4)nc3)cc3cncnc23)C1 (centres unmarked) [C077, 1-(3-(6-(6-phenoxypyridin-3-yl)quinazolin-8-yl)pyrrolidin-1-yl)prop-2-en-1-one]
> 50 | C=CC(=O)N1CCC(c2cc(-c3ccc(Oc4ccccc4)cc3)cc3cnc(N)nc23)C1 (centres unmarked) [C078, 1-(3-(2-amino-6-(4-phenoxyphenyl)quinazolin-8-yl)pyrrolidin-1-yl)prop-2-en-1-one]
< 50 | C=CC(=O)N1CCC(c2cc(-c3ccc(C(=O)Nc4ccccn4)cc3)cc3cncnc23)C1 (centres unmarked) [C079, 4-(8-(1-acryloylpyrrolidin-3-yl)quinazolin-6-yl)-N-(pyridin-2-yl)benzamide]
< 50 | C=CC(=O)N1CCC(c2cc(-c3ccc(C(=O)Nc4cccc(C)c4)nc3)cc3cncnc23)C1 (centres unmarked) [C080, 5-(8-(1-acryloylpyrrolidin-3-yl)quinazolin-6-yl)-N-(m-tolyl)picolinamide]
> 50 | C=CC(=O)Nc1cccc(-c2cc(-c3ccc(Oc4cccc(C(F)(F)F)c4)nc3)cc3cncnc23)c1 [C081, N-(3-(6-(6-(3-(trifluoromethyl)phenoxy)pyridin-3-yl)quinazolin-8-yl)phenyl)acrylamide]
< 50 | C=CC(=O)N1CCC(c2cc(-c3ccc(Oc4cccc(C(F)(F)F)c4)nc3)cc3cncnc23)C1 (centres unmarked) [C082, 1-(3-(6-(6-(3-(trifluoromethyl)phenoxy)pyridin-3-yl)quinazolin-8-yl)pyrrolidin-1-yl)prop-2-en-1-one]
< 50 | C=CC(=O)N1CCC(c2cc(-c3ccccc3)cc3cnc(N)nc23)C1 (centres unmarked) [C083, 1-(3-(2-amino-6-phenylquinazolin-8-yl)pyrrolidin-1-yl)prop-2-en-1-one]
< 50 | C=CC(=O)N1CCC(c2cc(-c3ccccc3F)cc3cncnc23)C1 (centres unmarked) [C084, 1-(3-(6-(2-fluorophenyl)quinazolin-8-yl)pyrrolidin-1-yl)prop-2-en-1-one]
< 50 | C=CC(=O)N1CCC(c2cc(-c3ccccc3F)cc3cnc(N)nc23)C1 (centres unmarked) [C085, 1-(3-(2-amino-6-(2-fluorophenyl)quinazolin-8-yl)pyrrolidin-1-yl)prop-2-en-1-one]
> 50 | C=CC(=O)Nc1cccc(-c2cc(-c3ccc(Oc4cccc(F)c4)nc3)cc3cncnc23)c1 [C086, N-(3-(6-(6-(3-fluorophenoxy)pyridin-3-yl)quinazolin-8-yl)phenyl)acrylamide]
< 50 | C=CC(=O)Nc1cccc(-c2cc(-c3ccc(C(=O)Nc4ccccn4)cc3F)cc3cncnc23)c1 [C087, 4-(8-(3-Acrylamidophenyl)quinazolin-6-yl)-3-fluoro-N-(pyridin-2-yl)benzamide]
> 50 | C=CC(=O)Nc1cccc(-c2cc(-c3ccc(Oc4cc(C(F)(F)F)ccn4)cc3Cl)cc3cncnc23)c1 [C088, N-(3-(6-(2-chloro-4-((4-(trifluoromethyl)pyridin-2-yl)oxy)phenyl)quinazolin-8-yl)phenyl)acrylamide]
> 50 | C=CC(=O)Nc1cccc(-c2cc(-c3ccc(C(=O)Nc4ccccc4)cc3F)cc3cncnc23)c1 [C089, 4-(8-(3-Acrylamidophenyl)quinazolin-6-yl)-3-fluoro-N-phenylbenzamide]
< 50 | C=CC(=O)N1CCC(c2cc(-c3ccc(Oc4cc(C(F)(F)F)ccn4)cc3F)cc3cncnc23)C1 (centres unmarked) [C090, 1-(3-(6-(2-Fluoro-4-((4-(trifluoromethyl)pyridin-2-yl)oxy)phenyl)quinazolin-8-yl)pyrrolidin-1-yl)prop-2-en-1-one]
> 50 | C=CC(=O)Nc1cccc(-c2cc(-c3ccccc3C#N)cc3cnc(N)nc23)c1 [C091, N-(3-(2-amino-6-(2-cyanophenyl)quinazolin-8-yl)phenyl)acrylamide]
> 50 | C=CC(=O)Nc1cccc(-c2cc(-c3ccc(C(=O)Nc4cccc(F)c4)nc3)cc3cncnc23)c1 [C092, 5-(8-(3-acrylamidophenyl)quinazolin-6-yl)-N-(3-fluorophenyl)picolinamide]
< 50 | C=CC(=O)N1CCC(c2cc(-c3ccc(C(=O)Nc4cccc(C(F)(F)F)c4)nc3)cc3cncnc23)C1 (centres unmarked) [C093, 5-(8-(1-acryloylpyrrolidin-3-yl)quinazolin-6-yl)-N-(3-(trifluoromethyl)phenyl)picolinamide]
< 50 | C=CC(=O)N1CCC(c2cc(-c3ccc(C(=O)Nc4ccccn4)cc3F)cc3cncnc23)C1 (centres unmarked) [C094, 4-(8-(1-acryloylpyrrolidin-3-yl)quinazolin-6-yl)-3-fluoro-N-(pyridin-2-yl)benzamide]

Same assay, conditions: series of concentrations; GraphPad Prism 5

IC50 [nM] | SMILES
< 100 | C=CC(=O)N1CCC(c2cc(-c3ccc(C(=O)Nc4ccccn4)cc3Cl)cc3cncnc23)C1 (centres unmarked) [C067, 4-(8-(1-acryloylpyrrolidin-3-yl)quinazolin-6-yl)-3-chloro-N-(pyridin-2-yl)benzamide]
< 100 | C=CC(=O)Nc1cccc(-c2cc(-c3ccccc3C#N)cc3cncnc23)c1 [C075, N-(3-(6-(2-cyanophenyl)quinazolin-8-yl)phenyl)acrylamide]
< 100 | C=CC(=O)N1CCC(c2cc(-c3ccc(Oc4ccccc4)cc3)cc3cnc(N)nc23)C1 (centres unmarked) [C078, 1-(3-(2-amino-6-(4-phenoxyphenyl)quinazolin-8-yl)pyrrolidin-1-yl)prop-2-en-1-one]
< 100 | C=CC(=O)Nc1cccc(-c2cc(-c3ccc(Oc4cccc(F)c4)nc3)cc3cncnc23)c1 [C086, N-(3-(6-(6-(3-fluorophenoxy)pyridin-3-yl)quinazolin-8-yl)phenyl)acrylamide]
< 100 | C=CC(=O)Nc1cccc(-c2cc(-c3ccccc3C#N)cc3cnc(N)nc23)c1 [C091, N-(3-(2-amino-6-(2-cyanophenyl)quinazolin-8-yl)phenyl)acrylamide]
